Experimental findings from patent US10006057B2, “Recombinant yeast having enhanced gamma valerolactone tolerance and methods of use” (Wisconsin Alumni Research Foundation, priority 2014, dated 2018) are described below.

“Also recorded” adds a separate entry of the source.

Common to all, as to type: cell-based, Saccharomyces cerevisiae
Assay [1] relates to yeast. The experiment in a line: IC50 determination, growth inhibition (strain not stated at the result). To be noted: FIG. 6B; p<0.001. The procedure:
(§1) Compounds tested were purchased from Sigma. Cells of S. cerevisiae (MATα pdr1Δ::natMX pdr3Δ::KI.URA3 snq2Δ::KI.LEU2 can1Δ::STE2pr-Sp_his5 lyp1Δ his3Δ1 leu2Δ0 ura3Δ0 met15Δ0), referred to as control strain, were grown in 200 μl cultures at 30° C. in YPD, with a drug or DMSO control. Plates were read on a TECAN M1000 over a 48 h growth period. The specific growth rate was calculated using GCAT analysis software (available at gcat3-pub.glbrc.org on the world wide web). When presented, IC50 values for growth inhibition were calculated from triplicate 8 point dose curves and SigmaPlot 12.0. When presented, error bars are Mean±Standard error of at least 3 replicates.

For assay [2], the system named is yeast. The experiment in a line: 4-vinylphenol-GVL synergy, growth. Particulars: FIG. 6C; p<0.01.
For assay [3], the system named is FDC1 deletion mutant in the standard lab strain background. The experiment in a line: GVL IC50, growth inhibition. To be noted: single mutant validation; FIG. 4B. The procedure: as §1
The test system of assay [4] is PAD1 deletion mutant in the standard lab strain background. The experiment in a line: GVL IC50, growth inhibition. To be noted: single mutant validation; FIG. 4B. On the procedure: as §1
Assay [5] has as its system Y133 pad1Δfdc1Δ. The experiment in a line: IC50 / tolerance, growth inhibition. Particulars: FIG. 5C; p<0.01.
In assay [6] the test system is Y133 + pPAD1. The experiment in a line: GVL IC50, single mutant cultures. To be noted: FIG. 4D. The text has this:
We wanted to extend our chemical genomic analysis to industrially an industrially relevant, xylose ferment yeast strain. Presently there are no available genome-wide deletion mutant collections in industrial yeast, so we took a complementary approach. The MoBY-ORF 2.0 plasmid collection is with barcoded versions of 95% of all S. cerevisiae genes each expressed on a 2μ plasmid. This collection of plasmids can be pooled and transformed into any yeast to allow investigations of the effect of gene dose under stress conditions. We transformed a version of the xylose-fermenting yeast GLBRC-Y133 [15] en masse with the pooled plasmid collection and selected over 50K individual transformants (10× genome coverage). We grew this pooled transformant collection in the presence of 2.5% GVL or a water control under anaerobic conditions in glucose/xylose containing media and assessed the effects of increased gene dose on growth in the presence of GVL. We found the Pad1p overexpression mutant was one of the top sensitive strains (p<0.01, FIG. 4C). […]
(§2) Compounds tested were purchased from Sigma. […] Plates were read on a TECAN M1000 over a 48 h growth period. The specific growth rate was calculated using GCAT analysis software (available at gcat3-pub.glbrc.org on the world wide web). When presented, IC50 values for growth inhibition were calculated from triplicate 8 point dose curves and SigmaPlot 12.0. […]

The subject of assay [7] is deletion mutants of SEC28, VPS38, DID2. The experiment in a line: Single mutant validation of GVL sensitivity. To be noted: single mutant cultures; FIG. 2C.
Description: Among the top 10 sensitive deletion mutants, we found significant enrichment for genes involved in late endosome to vacuole transport (p<0.01, FIG. 2B), driven by deletion mutants of SEC28, VPS38, DID2. […] Deletion mutants of these 3 genes have increased sensitivity to ethanol, heat, and membrane disrupting agents such as miconazole and nigercin. When we correlated the chemical genomic profile of GVL with the yeast genetic interaction network, we found significant enrichment for genes involved in golgi-vesicle mediated transport among the top 10 correlations (p=0.001). RET2 was consistently predicted as the top correlation for the GVL chemical genomic profile. Ret2p is a subunit of the coatomer complex involved in retrograde transport between Golgi and ER is also involved in golgi transport of vesicles. RET2 mutants similarity show increased sensitivity to heat and membrane disrupting agents.
as §2

For assay [8], the system named is membrane integrity of yeast cells. The experiment in a line: Cell leakage assay (dye uptake, flow cytometry). Particulars: dye uptake after treatment; FIG. 3A, B. The text has this: To confirm if GVL treatment can rapidly affect cell integrity, we assessed cell permeability after GVL treatment. […] Given that both GVL and ethanol can damage cellular membranes, we also tested if these compounds are synergistic.
A FungaLight™ cell viability assay (Invitrogen L34952) was used to determine if poacic acid caused membrane damage we used using a Guava Flow Cytometer (Millipore, USA). The population of stained cells (damaged integrity) vs non-stained cells can be determined by flow cytometry. Caspofungin (50 ng/ml) was included as a positive control. MMS and DMSO were included as a non-cell wall targeting and solvent control respectively. To test the effects of the compounds on both active and arrested cells, log-phase cultures were washed with 1×PBS and resuspended to an OD of 0.5 in either YPD media or YP (no carbon source) in the presence of the drugs (n=3) for 4 hours at 30° C. The cells were then stained and immediately read by flow cytometry. A one-way ANOVA and Tukey's test was used to calculate the difference between drug treatments among cells with arrested growth.
In general terms: In flow cytometry, cells or beads pass a laser one at a time.

The subject of assay [9] is lab strain. The experiment in a line: GVL-ethanol synergy, growth. Particulars: FIG. 3C. The procedure: (§3) To test for synergy, a 6×6 dose matrix was initially used to identify potentially synergistic dose combinations, these points were then confirmed in triplicate. 200 μl cultures were grown with combinations of with poacic acid (125 μg/ml), caspofungin (12.5 ng/ml) and fluconazole (3.8 μg/ml) and the relevant single agent and solvent controls their OD measured after 24 h. Synergy was determined by comparing actual optical density in the presence of compound combinations to an expected value calculated using the multiplicative hypothesis. This assumes that, in the absence of an interaction, each compound would decrease the OD of the cell culture by the same fraction in the presence of the other compound as it does when applied alone, i.e., E=A*B/C, where E is the expected OD, A is OD when compound A is applied alone, B is OD when compound B is applied alone, and C is OD of the control culture (DMSO). In the presence of synergy, the actual OD value is lower than the expected OD. A paired t-test was used to confirm statistical significance of this difference in 3 replicates of the experiment.
(§4) The synergistic interaction between GVL and ethanol was initially discovered using a 6-point dose matrix of the two compounds. We identified the points of the greatest synergy and perform triplicate growth curves of GLBRY-128 using a TECAN M1000 microplate reader. To confirm the GVL-R1 strain was less sensitive to the synergism between GVL and ethanol, used a 6-point dose matrix as described above with both GLBRCY-128 or GVL-R1 in a TECAN microplate reader for 48 hours at 30° C. Data from the most synergistic combination is presented (2% GVL-5% ethanol).

Assay [10] has as its system xylose fermenting strain. The experiment in a line: GVL-ethanol synergy, growth. Particulars: FIG. 3C. On the procedure: as §3, §4
For assay [11], the system named is Y133 background strain. The experiment in a line: Growth and sugar conversion in synthetic hydrolysate with 1% GVL. Particulars: anaerobic, synthetic hydrolysate containing 1% GVL; FIG. 5D. The procedure: (§5) 6 25-mL anaerobic flasks were prepared with Synthetic hydrolysate (SynH) (6% glucose/3% xylose)+1% GVL, pH 5.0. Flasks were inoculated with rinsed 133 or 133 pad1Δfdc1Δ cells to bring the initial OD to approximately 0.1. The tubes were grown for 72 hours with agitation anaerobically at 30° C. 1 mL samples were taken every 24 hours. Initial and daily samples were measured for OD and submitted for HPLC analysis to quantify sugar consumption and ethanol production.

For assay [12], the system named is Y133 pad1Δfdc1Δ. Described as above. Particulars: anaerobic, synthetic hydrolysate containing 1% GVL; FIG. 5D. The procedure:
as §5

Assay [13] relates to S. cerevisiae. The experiment in a line: 8 point dose curve for chemical genomic profiling. Particulars: YP-galactose media, 24 hours of growth. The procedure: Chemical genomic analysis of poacic acid was performed as described as described previously. The tested yeast deletion collection had ˜4000 strains using the genetic background described in Andrusiak (2012). The optimal inhibitory concentration of poacic acid for chemical genomic profiling (70-80% growth versus solvent control in YP-galactose media after 24 hours of growth) was determined using an 8 point dose curve. A concentration of 88 μg/ml inhibited growth within this range. 200 μl cultures of the pooled, deletion collection of S. cerevisiae deletion mutants were grown with 88 μg/ml poacic acid or a DMSO control in triplicate for 48 h at 30° C. Genomic DNA was extracted using the Epicentre MasterPure™ Yeast DNA purification kit. Mutant-specific molecular barcodes were amplified with specially designed multiplex primers. The barcodes were sequenced using an Illumina MiSeq. 3 replicates of each condition (poacic acid vs DMSO) were sequenced. One DMSO control was lost due to poor sequencing reads. The barcode counts for each yeast deletion mutant in the presence of poacic acid were normalized against the DMSO control conditions to define sensitivity or resistance of individual strains. To determine a p-value for each top sensitive and resistant mutant, we used the EdgeR package. […]

As to `C=Cc1ccc(O)cc1` [4-vinylphenol], in assay [1], the “IC50 / toxicity of 4-vinylphenol relative to coumaric acid” value is recorded as “significantly more toxic; also recorded: an order of magnitude lower”. In assay [2], the “synergistic interaction between 4-vinylphenol and GVL” value is “significantly synergistic; also recorded: statistically significant synergistic interaction”.

Turning to `CC1CCC(=O)O1` (centres unmarked) [GVL, gamma valerolactone], the “GVL tolerance of deletion mutant” value in assay [3] and in [4] was “more tolerant; also recorded: improved GVL tolerance” throughout. The “IC50 concentration / tolerance of GVL versus Y133 background” value in assay [5] is reported as “significantly greater; also recorded: significantly higher”. For the same compound, the “GVL tolerance with increased expression of PAD1” value in [6] is given as “significantly reduced GVL tolerance”. The “GVL IC50 / sensitivity compared to the control strain” value in [7] was “significantly more sensitive; also recorded: lower IC50”. Also, the “GVL concentration at which loss of membrane integrity is apparent” value in assay [8] was found to be 2.5%. Also, the “synergism between GVL and ethanol” value in assay [9] and in assay [10] (xylose fermenting strain) was “strong synergism” in each case. For the same compound, in assay [10] (1% GVL and 4% ethanol, p<0.01), the “synergistic interaction between GVL and ethanol” value is “significantly synergistic; also recorded: significant synergistic interaction”. For the same compound, the “growth, sugar consumption and ethanol production in presence of GVL” value in assay [11] is “did not”; in assay [12] it was “faster growth, sugar consumption, and ethanol production; also recorded: grew, consumed sugars, and produced ethanol”.

On to poacic acid, for which, in assay [13], the “concentration giving 70-80% growth versus solvent control” value amounted to 88 µg/mL.
